Test results as given in patent US10401298B2, “Label-free detection of small and large molecule interactions, and activities in biological systems” (Arizona Board of Regents on behalf of Arizona State …, priority 2014, dated 2019).
Read-outs that look alike come from different tables or passages of the source.

Tests used:
wild type SH-EP1 cells = assay: Control: response of wild type SH-EP1 cells (no nAChRs expressed) to acetylcholine; type: binding, human; conditions: wild type SH-EP1 cells without nAChRs, 500 nM acetylcholine
Description: H are shown. The scale bar is 20 μm.
Curve 370 represents the measurements for cell G and lighter curve 370 represents the measurements for cell H.

[1] = target: human α4β2 nicotinic acetylcholine receptors (nAChRs) (Homo sapiens, UniProt P17787+P43681); conditions: FIG. 5F, 100 nM Acetylcholine
Chain of human α4β2 nicotinic acetylcholine receptors (nAChRs) (P43681 29-627 limits assumed): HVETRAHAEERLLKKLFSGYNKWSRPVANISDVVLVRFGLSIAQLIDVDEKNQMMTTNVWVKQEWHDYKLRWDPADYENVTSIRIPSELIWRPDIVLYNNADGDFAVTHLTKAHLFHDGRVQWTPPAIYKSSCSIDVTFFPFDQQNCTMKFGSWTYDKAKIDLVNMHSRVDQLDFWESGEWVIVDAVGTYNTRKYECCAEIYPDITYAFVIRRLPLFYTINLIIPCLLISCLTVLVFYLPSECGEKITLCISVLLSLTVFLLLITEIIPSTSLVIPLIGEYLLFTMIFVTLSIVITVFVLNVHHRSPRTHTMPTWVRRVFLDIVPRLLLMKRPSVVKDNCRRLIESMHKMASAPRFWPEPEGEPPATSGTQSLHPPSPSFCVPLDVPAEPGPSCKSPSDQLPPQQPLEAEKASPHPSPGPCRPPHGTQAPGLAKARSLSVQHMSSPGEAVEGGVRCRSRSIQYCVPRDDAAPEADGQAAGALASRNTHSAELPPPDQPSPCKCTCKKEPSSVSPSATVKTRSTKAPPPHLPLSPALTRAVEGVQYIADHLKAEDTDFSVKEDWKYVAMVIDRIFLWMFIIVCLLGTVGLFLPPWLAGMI
Chain of human α4β2 nicotinic acetylcholine receptors (nAChRs) (P17787 26-502): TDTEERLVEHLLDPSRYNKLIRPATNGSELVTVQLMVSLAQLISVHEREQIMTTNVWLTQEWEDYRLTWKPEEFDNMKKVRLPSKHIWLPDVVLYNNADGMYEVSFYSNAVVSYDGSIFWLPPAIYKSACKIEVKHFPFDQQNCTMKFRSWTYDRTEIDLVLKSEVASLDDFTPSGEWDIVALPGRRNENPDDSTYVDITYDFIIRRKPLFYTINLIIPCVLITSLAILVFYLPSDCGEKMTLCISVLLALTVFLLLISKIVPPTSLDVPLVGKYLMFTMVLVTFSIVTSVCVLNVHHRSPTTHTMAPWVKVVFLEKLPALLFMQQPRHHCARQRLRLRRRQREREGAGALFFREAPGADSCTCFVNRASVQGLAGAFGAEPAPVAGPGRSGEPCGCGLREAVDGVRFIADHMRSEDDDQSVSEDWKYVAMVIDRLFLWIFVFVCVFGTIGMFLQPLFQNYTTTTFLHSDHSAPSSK
Description: The edge of a cell 5 can be manually defined from the optical image of the cell, but an imaging processing algorithm can automatically detect the cell edge, providing high throughput. After determining the cell edge, a region of interest (ROI) is selected at a location of the cell edge. The ROI can be a rectangular shape30 with the cell edge 32 passing through the center portion of the rectangle, dividing the rectangle into two equal halves, one half 34 is inside of the cell, and the second half 36 falls outside of the cell. We denote the intensities of the two halves of the differential image as A and B, and (A−B)/(A+B) is calculated and used to determine the movement of the cell edge at each location. […]
The relation between the cell edge movement and the measured differential image intensity change from one of the above differential optical detection method can be determined as below. […] The edge of one cell is manually chosen and the centroid (O) of the cell is determined (FIGS. 1B and 1C). […] The cell edge movement was calculated at every 10 starting from 0 (FIG. 1E). The ROI at a certain point of the cell edge (point A) is then shifted by different numbers of pixels outwards (perpendicular to the tangential line at point A), and the corresponding changes in the differential image intensity is determined from the image. […]

`CC(=O)OCC[N+](C)(C)C.[Cl-]` [acetylcholine, acetylcholine chloride] was tested, and the “deformation in the cell membrane” value (wild type SH-EP1 cells) was “no deformation”, the “amount of cell membrane deformation after acetylcholine binding” value ([1]; lower end of range, at region 592) was “about −40 nm” and the “amount of cell membrane deformation after acetylcholine binding” value ([1]; upper end of range, at arrow 590) was “about 80 nm”.
